The values below come from patent US9802944B2, “Bicyclic compounds as autotaxin (ATX) and lysophosphatidic acid (LPA) production inhibitors” (Hoffmann-La Roche Inc., priority 2014, dated 2017).

In this experiment the target is ATX (human His-tagged) (Homo sapiens (Human), UniProt Q13822). As to the kind of experiment: Human ATX enzyme inhibition assay (fluorescence quenching, MR121 substrate). The experiment is classed as biochemical. Particulars: 30 nM ATX, 1 μM MR121 substrate, 30° C., pH 8.0. The method, then: Production of Human Full Length ATX, with and without his Tag
Autotaxin (ATX-ENPP2) Cloning:
cDNA was prepared from commercial human hematopoietic cells total RNA and used as template in overlapping PCR to generate a full length human ENPP2 ORF with or without a 3′-6×His tag. These full length inserts were cloned into the pcDNA3.1V5-His TOPO (Invitrogen) vector. The DNA sequences of several single clones were verified. The DNA from a correct full length clone was used to transfect Hek293 cells for verification of protein expression. […] ATX Fermentation: Recombinant protein was produced by large-scale transient transfection in 20 L controlled stirred tank bioreactors (Sartorius). During cell growth and transfection, temperature, stirrer speed, pH and dissolved oxygen concentration were maintained at 37° C., 120 rpm, 7.1 and 30% DO, respectively. […] Expression was analyzed by Western Blot, enzymatic assay and/or analytical IMAC chromatography. After cooling the cell suspension to 4° C. in a flow-through heat exchanger, cell separation and sterile filtration of supernatant was performed by filtration through Zeta Plus 60M02 E16 (Cuno) and Sartopore 2 XLG (Sartorius) filter units. The supernatant was stored at 4° C. prior to purification. ATX Purification: 20 liter of culture supernatant were conditioned for ultrafiltration by adding Brij 35 to a final concentration of 0.02% and by adjusting the pH to 7.0 using 1 M HCl. Then the supernatant was first microfiltered through a 0.2 μm Ultran-Pilot Open Channel PES filter (Whatman) and afterwards concentrated to 1 liter through an Ultran-Pilot Screen Channel PES filter with 30 kDa MWCO (Whatman). Prior to IMAC chromatography, NiSO4 was added to a final concentration of 1 mM. The cleared supernatant was then applied to a HisTrap column (GE Healthcare) previously equilibrated in 50 mM Na2HPO4 pH 7.0, 0.5 M NaCl, 10% glycerol, 0.3% CHAPS, 0.02% NaN3. The column was washed stepwise with the same buffer containing 20 mM, 40 mM and 50 mM imidazole, respectively. The protein was subsequently eluted using a linear gradient to 0.5 M imidazole in 15 column volumes. ATX containing fractions were pooled and concentrated using an Amicon cell equipped with a 30 kDa PES filter membrane. The protein was further purified by size exclusion chromatography on Superdex S-200 prep grade (XK 26/100) (GE Healthcare) in 20 mM BICINE pH 8.5, 0.15 M NaCl, 10% glycerol, 0.3% CHAPS, 0.02% NaN3. […] The protein was stored at −80° C. […] 10 μL of MR121 substrate solution was added (1 μM final concentration), mixed 30 times and then incubated for 15 minutes at 30° C.

The IC50 is the concentration needed to halve the response being measured. Low readings indicate greater potency in that assay, high ones weaker potency in that assay.

`O=C(c1cc(OCC2CCCOC2)nc(C2CC2)c1)N1C[C@@H]2CN(C(=O)[C@@H]3CCc4[nH]nnc4C3)C[C@H]2C1` (stereo partly drawn) [Example 2.16, ((3aS,6aS)-5-(2-cyclopropyl-6-((tetrahydro-2H-pyran-3-yl)methoxy)isonicotinoyl)hexahydropyrrolo[3,4-c]pyrrol-2(1H)-yl)((R)-4,5,6,7-tetrahydro-1H-benzo[d][1,2,3]triazol-5-yl)methanone]: half-maximal inhibition (IC50) was put at 0.017 µM.

Regarding `NS(=O)(=O)c1ccc(C(=O)N2C[C@H]3CN(C(=O)c4cc(OCC5CCCOC5)nc(C5CC5)c4)C[C@@H]3C2)nc1` (stereo partly drawn) [Example 2.17, 6-((3aR,6aR)-5-(2-cyclopropyl-6-((tetrahydro-2H-pyran-3-yl)methoxy)isonicotinoyl)octahydropyrrolo[3,4-c]pyrrole-2-carbonyl)pyridine-3-sulfonamide], half-maximal inhibition (IC50) required 0.009 µM.

`O=C(c1cc(OCC2CCOCC2)nc(C2CC2)c1)N1C[C@@H]2CN(Cc3ccc4[nH]nnc4c3)C[C@H]2C1` [Example 2.18, ((3aS,6aS)-5-((1H-benzo[d][1,2,3]triazol-5-yl)methyl)hexahydropyrrolo[3,4-c]pyrrol-2(1H)-yl)(2-cyclopropyl-6-((tetrahydro-2H-pyran-4-yl)methoxy)pyridin-4-yl)methanone] yielded an IC50 of 0.01 µM.

`O=C(c1cc(OCC2CCCOC2)nc(C2CC2)c1)N1C[C@@H]2CN(Cc3ccc4[nH]nnc4c3)C[C@H]2C1` (stereo partly drawn) [Example 2.19, ((3aS,6aS)-5-((1H-benzo[d][1,2,3]triazol-5-yl)methyl)hexahydropyrrolo[3,4-c]pyrrol-2(1H)-yl)(2-cyclopropyl-6-((tetrahydro-2H-pyran-3-yl)methoxy)pyridin-4-yl)methanone] yielded a 50% inhibitory concentration (IC50) of 0.01 µM.

In turn, `O=C(c1cc(Cl)nc(OCC2CCOCC2)c1)N1C[C@@H]2CN(C(=O)c3ccc4[nH]nnc4c3)C[C@H]2C1` [Example 2.20, ((3aS,6aS)-5-(1H-benzo[d][1,2,3]triazole-5-carbonyl)hexahydropyrrolo[3,4-c]pyrrol-2(1H)-yl)(2-chloro-6-((tetrahydro-2H-pyran-4-yl)methoxy)pyridin-4-yl)methanone] returned a half-maximal inhibitory concentration (IC50) of 0.04 µM.

Compound `O=C(c1ccc2[nH]nnc2c1)N1CC[C@@H]2CN(C(=O)c3cc(OCC4CCOCC4)nc(C4CC4)c3)C[C@@H]2CC1` [Example 2.22, ((3aR,8aS)-6-(1H-benzo[d][1,2,3]triazole-5-carbonyl)octahydropyrrolo[3,4-d]azepin-2(1H)-yl)(2-cyclopropyl-6-((tetrahydro-2H-pyran-4-yl)methoxy)pyridin-4-yl)methanone] returned an IC50 of 0.01 µM.

Compound `CN(C)c1cc(C(=O)N2C[C@@H]3CN(C(=O)c4ccc5[nH]nnc5c4)C[C@H]3C2)cc(OCC2CCOCC2)n1` [Example 2.23, ((3aS,6aS)-5-(1H-benzo[d][1,2,3]triazole-5-carbonyl)hexahydropyrrolo[3,4-c]pyrrol-2(1H)-yl)(2-(dimethylamino)-6-((tetrahydro-2H-pyran-4-yl)methoxy)pyridin-4-yl)methanone] came in with a half-maximal inhibitory concentration (IC50) of 0.005 µM.

`O=C(c1cc(OCC2CCOCC2)nc(C2CC2)c1)N1C[C@@H]2CN(Cc3ccc4[nH]c(=O)oc4c3)C[C@H]2C1` [Example 2.24, 6-(((3aS,6aS)-5-(2-cyclopropyl-6-((tetrahydro-2H-pyran-4-yl)methoxy)isonicotinoyl)hexahydropyrrolo[3,4-c]pyrrol-2(1H)-yl)methyl)benzo[d]oxazol-2(3H)-one]: half-maximal inhibition (IC50) was put at 0.011 µM.

Compound `CN(C)c1cc(C(=O)N2C[C@@H]3CN(C(=O)[C@@H]4CCc5[nH]nnc5C4)C[C@H]3C2)cc(OCC2CCOCC2)n1` [Example 2.25, ((3aS,6aS)-5-(2-(dimethylamino)-6-((tetrahydro-2H-pyran-4-yl)methoxy)isonicotinoyl)hexahydropyrrolo[3,4-c]pyrrol-2(1H)-yl)((R)-4,5,6,7-tetrahydro-1H-benzo[d][1,2,3]triazol-5-yl)methanone] had an IC50 of 0.017 µM. Compared with the last compound, the IC50 is about 1.5-fold higher.
